Results from patent US11607417B2, “Uses of celastrol in preventing and/or treating cholestatic liver disease and liver fibrosis” (KUNMING INSTITUTE OF BOTANY, THE CHINESE ACADEMY OF SCIENCES, priority 2017, dated 2023).
Several values for one entry are separate records, joined by “and”; a condition that tells them apart may be missing. Equal values may be shown once.

Tested on: TAA-induced cholestatic liver injury
Test: TAA-induced mouse cholestatic liver injury (Example 2)
Type: in vivo, C57BL/6 mice
Method: A total of 18 male C57BL/6 mice were divided into three groups: blank group (n=6); model group (n=6); treatment group (n=6).
Celastrol was dissolved in a solvent to obtain a solution of celastrol at a concentration of 2 mg/mL, wherein the solvent consisted of 1% DMSO, 2% Tween, and 97% water (v:v:v). For intragastrical administration, the dosage of celastrol was 10 mg/kg·d. TAA was dissolved in 0.9% NaCl solution to prepare a NaCl solution of TAA at a concentration of […], and the dosage of TAA for intraperitoneal administration was 300 mg/kg.
The treatment group was administered intragastrically with the celastrol solution at a dosage of 10 mg/kg·d for 4 consecutive days. At the same time, the blank group and the model group were intragastrically administered with the same dosage of a solvent, wherein the solvent consisted of 1% DMSO, 2% Tween 80 and 97% water (v:v:v), and the solvent was administrated for 4 consecutive days.
On the 4th day, TAA model was established. 1 Hour after administration with the solvent or celastrol solution, the mice of the treatment group and the model group were respectively intraperitoneally injected with the NaCl solution of TAA at a dosage of 300 mg/kg to induce cholestatic liver injury. 24 Hours after treatment with TAA, the mice were sacrificed by CO2 anesthesia, and plasma samples and liver samples were collected. The eyeballs of the mice were taken for blood collection. The plasma samples were placed on ice for 1-2 hours, centrifuged at 4000 g for 5 minutes at 4° C., and the supernatant plasma samples were taken to determine the plasma biochemical indicators, the levels of ALT, AST and ALP.
At the same time, plasma samples were prepared: 10 μL of plasma sample was taken, mixed with 190 μL of 67% acetonitrile (containing 5 μM internal standard chlorpropamide), centrifuged at 18000 g for 20 minutes at 4° C., and the supernatant was taken for sample injection.
Liver samples were prepared: 100 mg liver samples were mixed well with 1 mL of 50% acetonitrile (containing 5 μM internal standard chlorpropamide), shaken for 20 minutes at room temperature, and then centrifuged at 18000 g for 20 minutes at 4° C. Thereafter, 200 μL of the supernatant was taken and added with 200 μl of pure acetonitrile, vortexed for 1 minute, centrifuged at 18000 g for 20 minutes at 4° C., and the supernatant was taken for sample injection. The liquid chromatography conditions were as follows: the injection volume was 5 μL; the temperature of column was 45° C.; the flow rate of mobile phase was 0.3 mL/min; the gradient elution was that acetonitrile concentration changed from 2% to 98% during 16 minutes of operation, wherein the mobile phase (water/acetonitrile solution) contained 0.01% formic acid. The elution procedure was as follows: during 0-12th minute, the acetonitrile concentration changed from 2% to 98% at a constant rate; 12-14th minute, the acetonitrile concentration was maintained at 98%; 14-14.1th minute, the acetonitrile concentration changed from 98% to 2%; 14.1-16th minute, the acetonitrile concentration was maintained at 2%. Mass spectrometry conditions were as follows: the temperature of dry gas was 350° C., the pressure of nebulizer was 35 psi, and the voltage of capillary was 3.5 kV.
Part of the collected mouse liver tissue was fixed overnight in formalin and tissue sections were stained with hematoxylin and eosin (H&E).

[1] = celastrol 10 mg/kg·d intragastric 4 days, TAA 300 mg/kg i.p. on day 4, 24 h after TAA, n=6
[2] = celastrol 10 mg/kg·d intragastric 4 days, TAA 300 mg/kg i.p., 24 h after TAA, n=6

CC1=C(O)C(=O)C=C2C1=CC=C1[C@@]2(C)CC[C@@]2(C)[C@@H]3C[C@](C)(C(=O)O)CC[C@]3(C)CC[C@]12C [celastrol, Celastrol]
Liver weight of mouse when sacrificed [1]: 1.55 g and 1.55 ± 0.21 g
Liver weight/body weight [1]: 6.48% and 6.48 ± 0.93%
ALP in mouse plasma [2]: 50.1 ± 7.8 U/l
ALT in mouse plasma [2]: 333.3 ± 211.3 U/l
AST in mouse plasma [2]: 920.3 ± 433.4 U/l
H&E staining: area of liver necrosis in liver tissue (celastrol 10 mg/kg·d intragastric, TAA model, FIG. 2C): significantly reduced
Levels of bile acids in plasma vs TAA model group (ω-MCA, DCA, TβMCA/TαMCA, TCA, THDCA/TUDCA, TCDCA, TDCA, celastrol 10 mg/kg·d, FIG. 2D): significantly lower
Levels of bile acids in liver vs TAA model group (ω-MCA, β-MCA, CA, DCA, TβMCA/TαMCA, TCA, GCA, TLCA, celastrol 10 mg/kg·d, FIG. 2E): significantly lower
